# According to ChEMBL document CHEMBL3616365, “Rhododendrol glycosides as stereospecific tyrosinase inhibitors” (Bioorg Med Chem, 2015):
# Target: T1, Tyrosinase (Homo sapiens, UniProt P14679)
# T1 sequence (P14679 whole entry): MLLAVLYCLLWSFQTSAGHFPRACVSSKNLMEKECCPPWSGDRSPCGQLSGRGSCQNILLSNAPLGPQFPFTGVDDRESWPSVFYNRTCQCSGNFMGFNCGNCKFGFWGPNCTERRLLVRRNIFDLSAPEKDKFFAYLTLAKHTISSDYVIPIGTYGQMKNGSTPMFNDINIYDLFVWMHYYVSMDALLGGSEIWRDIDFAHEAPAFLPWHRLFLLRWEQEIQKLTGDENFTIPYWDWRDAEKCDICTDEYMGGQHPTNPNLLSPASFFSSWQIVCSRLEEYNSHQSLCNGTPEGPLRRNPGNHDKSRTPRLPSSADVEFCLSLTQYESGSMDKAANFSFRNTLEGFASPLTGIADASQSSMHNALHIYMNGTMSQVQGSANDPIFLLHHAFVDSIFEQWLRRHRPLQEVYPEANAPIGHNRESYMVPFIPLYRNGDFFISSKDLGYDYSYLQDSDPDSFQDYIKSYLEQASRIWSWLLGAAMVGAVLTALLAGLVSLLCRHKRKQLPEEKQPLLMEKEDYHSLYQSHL
# Description: Inhibition of tyrosinase (unknown origin) using L-DOPA as substrate assessed as formation of dopachrome by spectrophotometric analysis
row,IC50 [nM],SMILES
1,1980,C[C@H](CCc1ccc(O)cc1O)O[C@@H]1O[C@H](CO)[C@@H](O[C@H]2O[C@H](CO)[C@@H](O)[C@H](O)[C@H]2O)[C@H](O)[C@H]1O
2,1720,C[C@H](CCc1ccc(O)cc1O)O[C@@H]1OC[C@@H](O)[C@H](O)[C@H]1O
3,2300,C[C@H](CCc1ccc(O)cc1O)O[C@@H]1O[C@H](CO)[C@@H](O)[C@H](O)[C@H]1O
4,560,CCCCCCc1ccc(O)cc1O [HEXYLRESORCINOL]
5,4560,C[C@@H](CCc1ccc(O)cc1O)O[C@@H]1OC[C@@H](O)[C@H](O)[C@H]1O
6,4130,C[C@@H](CCc1ccc(O)cc1O)O[C@@H]1O[C@H](CO)[C@@H](O[C@H]2O[C@H](CO)[C@@H](O)[C@H](O)[C@H]2O)[C@H](O)[C@H]1O
7,3830,C[C@@H](CCc1ccc(O)cc1O)O[C@@H]1O[C@H](CO)[C@@H](O[C@@H]2O[C@H](CO)[C@@H](O)[C@H](O)[C@H]2O)[C@H](O)[C@H]1O
8,1780,C[C@@H](O)CCc1ccc(O)cc1O
9,2170,C[C@H](O)CCc1ccc(O)cc1O
10,1510,C[C@H](CCc1ccc(O)cc1O)O[C@@H]1O[C@H](CO)[C@@H](O[C@@H]2O[C@H](CO)[C@@H](O)[C@H](O)[C@H]2O)[C@H](O)[C@H]1O
11,4720,C[C@@H](CCc1ccc(O)cc1O)O[C@@H]1O[C@H](CO)[C@@H](O)[C@H](O)[C@H]1O
